Measurements as given in US10111937B2, “Method of reducing accumulation of intracellular tingible body macrophages” (THE REGENTS OF THE UNIVERSITY OF MICHIGAN, priority 2008, dated 2018).

What was measured:
[1] = system: acidic transacylation of ceramide; settings: lysosomal fraction of cells; earlier observation; cited from earlier work
LPLA2 [2] = biological target: T1, LPLA2 (Canis lupus familiaris, UniProt Q6XPZ3); assay: LPLA2 activity in MDCK cells treated with cationic amphiphilic drugs, measured as transacylation of N-acetylsphingosine; type: cell-based
T1 construct: endogenous in cells; host or cells: MDCK cells
T1 sequence (Q6XPZ3 32-408): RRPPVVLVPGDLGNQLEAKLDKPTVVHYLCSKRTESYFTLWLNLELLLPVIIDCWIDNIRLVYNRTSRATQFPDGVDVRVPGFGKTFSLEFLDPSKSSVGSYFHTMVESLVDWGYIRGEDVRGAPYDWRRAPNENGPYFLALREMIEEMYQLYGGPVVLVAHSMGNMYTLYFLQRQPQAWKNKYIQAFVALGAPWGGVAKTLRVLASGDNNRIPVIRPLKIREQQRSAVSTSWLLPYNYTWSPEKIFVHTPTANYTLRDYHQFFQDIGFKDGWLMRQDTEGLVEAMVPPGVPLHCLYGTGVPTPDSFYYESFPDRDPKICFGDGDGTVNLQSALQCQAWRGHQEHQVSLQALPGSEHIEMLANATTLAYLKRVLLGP
Procedure: LPLA2 activity was measured as the transacylation of N-acetylsphingosine. […] The major cellular phospholipids were assayed following 1 or 7 days of exposure to the CAD.

recombinant mouse LPLA2 [3] = biological target: T2, recombinant mouse LPLA2 (Mus musculus, UniProt Q8VEB4); assay: Co-sedimentation of LPLA2 with liposomes (ultracentrifugation, SDS-PAGE); type: binding; settings: DOPC or DOPC/sulfatide (10:1) liposomes; 33 μM amiodarone; FIGS. 13B and 13C
T2 sequence (Q8VEB4 34-412): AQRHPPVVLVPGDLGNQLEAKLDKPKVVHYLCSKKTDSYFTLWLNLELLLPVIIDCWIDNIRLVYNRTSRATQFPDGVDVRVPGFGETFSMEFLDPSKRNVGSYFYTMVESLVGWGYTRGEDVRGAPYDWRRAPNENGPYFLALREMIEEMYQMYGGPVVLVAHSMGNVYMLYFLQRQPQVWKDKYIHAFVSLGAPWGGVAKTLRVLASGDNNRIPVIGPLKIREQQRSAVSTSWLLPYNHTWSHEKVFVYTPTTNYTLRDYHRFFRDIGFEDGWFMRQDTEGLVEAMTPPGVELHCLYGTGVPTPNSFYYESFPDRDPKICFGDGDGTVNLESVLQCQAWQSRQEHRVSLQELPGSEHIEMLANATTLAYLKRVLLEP
Procedure: Liposomes consisting of DOPC or DOPC/sulfatide (10:1, molar ratio) were incubated with varying amounts of recombinant mouse LPLA2 in 500 μl of 48 mM Na-citrate (pH 4.5) for 30 min on ice (FIG. 13A). […] The reaction mixtures were centrifuged for 1 h at 150,000 g at 4° C. The concentration of DOPC in these assays was 127 μM. The resultant precipitates were briefly washed with cold 50 mM Na-citrate (pH 4.5) and dissolved with 40 μl of SDS-polyacrylamide gel electrophoresis sampling buffer. The samples were separated by using 12% SDS-polyacrylamide gel. After electrophoresis, LPLA2 was detected by staining with CBB.

LPLA2 [4] = biological target: T3, LPLA2 (Homo sapiens, UniProt Q8NCC3); settings: background description; cited from earlier work
T3 sequence (Q8NCC3 34-412): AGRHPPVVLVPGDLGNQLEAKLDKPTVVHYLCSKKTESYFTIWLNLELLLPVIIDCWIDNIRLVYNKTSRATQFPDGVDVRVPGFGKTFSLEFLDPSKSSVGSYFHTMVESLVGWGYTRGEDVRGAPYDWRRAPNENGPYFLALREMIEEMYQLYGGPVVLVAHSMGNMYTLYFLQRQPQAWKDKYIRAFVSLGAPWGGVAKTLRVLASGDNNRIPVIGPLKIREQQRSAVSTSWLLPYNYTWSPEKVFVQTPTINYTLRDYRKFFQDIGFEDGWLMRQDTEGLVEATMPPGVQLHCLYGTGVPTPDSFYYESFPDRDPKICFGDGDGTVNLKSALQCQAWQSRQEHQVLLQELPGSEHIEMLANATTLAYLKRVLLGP

[5] = system: LPLA2 null alveolar macrophages; settings: Abe et al. J. Immunol 2008; cited from earlier work
[6] = system: LPLA2 null alveolar macrophages; assay: Uptake of recombinant LPLA2 into LPLA2 null alveolar macrophages (Western blotting, confocal microscopy, enzyme activity); type: cell-based, mouse
Text: Recombinant glycosylated mouse LPLA2 produced by HEK293 cells was applied to LPLA2-deficient (LPLA2−/−) mouse alveolar macrophages. […] Thus, the predominant pathway for uptake of exogenous LPLA2 is via the mannose receptor. (Abe et al., J. Immunol, 181(11):7873-81, 2008).
The ability of macrophages from LPLA2−/− mice to recognize, endocytose, and traffic recombinant LPLA2 was studied as follows. LPLA2 null alveolar macrophages were exposed to His-tagged mouse LPLA2 for 1 day at concentrations varying between 0.3 and 10 μg/ml. Cell incorporation was measured by Western blotting and confocal microscopy using either anti-His antibody or a monoclonal antibody raised to LPLA2.
(§1) Finally, the ability of the recombinant enzyme to “rescue” the cellular phenotype was confirmed by measuring the cellular phospholipid content.

recombinant mouse LPLA2 [7] = biological target: T2, recombinant mouse LPLA2; assay: 1-O-acylceramide synthase (transacylase) activity of recombinant LPLA2 on liposomes, 1-O-oleoyl-NAS by HPTLC; type: biochemical; settings: DOPC/sulfatide/NAS liposomes vs DOPC/NAS, pH 4.5, 5-45 min at 37° C.; FIGS. 11A and 11B
Procedure: To address this possibility, the 1-O-acylceramide synthase activity of LPLA2 was studied in liposomes in which the anionic lipid content was varied by the addition of sulfatide, a negatively charged, sulfate containing glycolipid that is not a substrate for LPLA2. Di-octanoyl-PC (DOPC) was used as the liposomal substrate. The reaction mixture contained 48 mM sodium citrate (pH 4.5), 10 μg/ml BSA, liposomes (127 μM phospholipid) and 14.5 ng/ml of recombinant mouse LPLA2 in 500 μl of total volume. Liposomes consisting of DOPC/NAS (3:1, molar ratio) or DOP/sulfatide/NAS (3:0.3:1, molar ratio) were incubated with the enzyme for 5, 10, 15, 30 and 45 min at 37° C. The reaction products were extracted and separated by an HPTLC plate using a solvent system consisting of chloroform/acetic acid (9:1, v/v). The reaction product, 1-O-oleoyl-NAS, quantified by scanning the plate, was plotted against time (FIG. 11A). Liposomes consisting of DOPC/galactosylceramide/NAS or DOPC/sulfatide/NAS with a different molar ratio were incubated with the recombinant enzyme at 37° C. (FIG. 11B).

[8] = system: LPLA2 null alveolar macrophages; assay: Rescue of cellular phospholipid content in LPLA2 null alveolar macrophages by recombinant enzyme; type: cell-based, mouse; settings: LPLA2 null alveolar macrophages treated with enzyme
Text: as §1

CCCCCCCCCC(=O)NC(CN1CCOCC1)C(O)c1ccccc1 (centres unmarked) [PDMP, 1-phenyl-2-decanoylamino-3-morpholino-1-propanol]
inhibition of acidic transacylation of ceramide [1]: inhibit acidic transacylation of ceramide
inhibition of LPLA2 activity as measured by ceramide transacylation (LPLA2 [2]; MDCK cells treated for 1 or seven days, FIG. 10A): concentration dependent inhibition of LPLA2 activity
IC50 for enzyme inhibition (LPLA2 [2]; MDCK cells, no numbers given): comparable IC50s

CCCCc1oc2ccccc2c1C(=O)c1cc(I)c(OCCN(CC)CC)c(I)c1 [amiodarone]
physical association between LPLA2 and liposomes (recombinant mouse LPLA2 [3]): inhibited

O=C1O/C(=C/Br)CCC1c1cccc2ccccc12 (centres unmarked) [bromoenollactone]
inhibition of LPLA2 enzyme activity (LPLA2 [4]): do not inhibit the enzyme activity

CCCCC/C=C\C/C=C\C/C=C\C/C=C\CCCC(=O)C(F)(F)F [nonadecyltetraenyl trifluoromethyl ketone]
inhibition of LPLA2 enzyme activity (LPLA2 [4]): do not inhibit the enzyme activity

COC1O[C@H](CO)[C@@H](O)[C@H](O)[C@@H]1O (stereo partly drawn) [α-Methyl-mannoside, α-methyl-mannoside]
suppression of uptake of exogenous LPLA2 [5]: significantly suppressed
blocking of incorporation of recombinant LPLA2 ([6]; 10 mM, 1-O-acyl-ceramide synthase activity, immunoblotting, confocal microscopy): blocked the incorporation of LPLA2

sulfatide
transacylation activity in presence of anionic lipid (recombinant mouse LPLA2 [7]): time dependent increase in the transacylation activity
physical association between LPLA2 and liposomes (recombinant mouse LPLA2 [3]): increased

B1: Recombinant glycosylated mouse LPLA2: Recombinant glycosylated mouse LPLA2 produced by HEK293 cells (protein, UniProt Q8VEB4 34-412, looked up)
Lysosomal phospholipase A and …: T2 sequence (Q8VEB4 34-412)
modifications: HEK293-produced glycosylated
notes: Recombinant glycosylated mouse LPLA2 produced by HEK293 cells
uptake of exogenous LPLA2 into LPLA2−/− alveolar macrophages [5]: occurred in a concentration-dependent manner

B2: His-tagged mouse LPLA2: His-tagged recombinant mouse lysosomal phospholipase A2 applied to LPLA2 null alveolar macrophages (protein)
chain: T2 sequence (Q8VEB4 34-412)
modifications: left off: small tags and cut ends
notes: His-tagged recombinant mouse lysosomal phospholipase A2 applied to LPLA2 null alveolar macrophages
cell phosphatidylcholine and phosphatidylethanolamine content [8]: concentration dependent decrease in cell phosphatidylcholine and phosphatidylethanolamine
cellular LPLA2 (cell incorporation) ([6]; 1 day at 0.3 to 10 μg/ml, Western blotting, confocal microscopy, enzyme activity): concentration dependent increase in cellular LPLA2
co-localization with lysosome protein Lamp-1 ([6]; cells stained with anti-LPLA2 and Lamp-1 antibodies): readily detected
